According to ChEMBL document CHEMBL3853324, “Optimizing Protonation States for Selective Double-Strand DNA Photocleavage in Hypoxic Tumors: pH-Gated Transitions of Lysine Dipeptides” (J Med Chem, 2016):
Calls of active or inactive are those of the source. The calls are words filed in the database; no cut-off is given here.

How the values were obtained:
[1] = tested on: Escherichia coli; assay: Induction of Escherichia coli supercoiled pBR322 plasmid DNA photocleavage at 15 uM and pH 6 in presence of glycerol by densitometric analysis
[2] = Displacement of ethidium bromide from DNA (unknown origin) assessed as Stem-Volmer quenching constant at pH 8 by UV-spectroscopic analysis; parameters: unit not given here
[3] = tested on: Escherichia coli; assay: Induction of Escherichia coli supercoiled pBR322 plasmid DNA photocleavage assessed as single stranded break formation per molecule at pH 6 at 15 uM measured after 8 mins of UV-irradiation by densitometric analysis
[4] = species: Bos taurus; assay: Binding affinity to calf thymus DNA assessed as binding constant at 15 uM and pH 7 by UV-spectroscopic analysis
[5] = species: Bos taurus; assay: Binding affinity to calf thymus DNA assessed as binding constant at 15 uM and pH 8 by UV-spectroscopic analysis
[6] = tested on: Escherichia coli; assay: Induction of Escherichia coli supercoiled pBR322 plasmid DNA photocleavage at 15 uM and pH 6 in presence of NaN3 by densitometric analysis
[7] = Displacement of ethidium bromide from DNA (unknown origin) assessed as Stem-Volmer quenching constant at pH 6 by UV-spectroscopic analysis; parameters: unit not given here
[8] = Dissociation constant, pKa of the compound for first ionization at 10 uM by fluorescence analysis; type: physicochemical
[9] = Displacement of ethidium bromide from DNA (unknown origin) assessed as Stem-Volmer quenching constant at pH 7 by UV-spectroscopic analysis; parameters: unit not given here
[10] = tested on: Escherichia coli; assay: Induction of Escherichia coli supercoiled pBR322 plasmid DNA photocleavage at 15 uM and pH 6 in presence of DMSO by densitometric analysis
[11] = species: Bos taurus; assay: Ratio of binding affinity to calf thymus DNA at pH 8 to binding affinity to calf thymus DNA at pH 6
[12] = tested on: Escherichia coli; assay: Induction of Escherichia coli supercoiled pBR322 plasmid DNA photocleavage assessed as single stranded break formation per molecule at pH 6 at 15 uM measured after 4 mins of UV-irradiation by densitometric analysis
[13] = tested on: Escherichia coli; assay: Induction of Escherichia coli supercoiled pBR322 plasmid DNA photocleavage assessed as double stranded break formation per molecule at pH 6 at 15 uM measured after 6 mins of UV-irradiation by densitometric analysis
[14] = tested on: Escherichia coli; assay: Induction of Escherichia coli supercoiled pBR322 plasmid DNA photocleavage assessed as double stranded break formation per molecule at pH 6 at 15 uM measured after 4 mins of UV-irradiation by densitometric analysis
[15] = tested on: Escherichia coli; assay: Induction of Escherichia coli supercoiled pBR322 plasmid DNA photocleavage assessed as ratio of single stranded break to double stranded break formation per molecule at pH 6 at 15 uM measured after 6 mins of UV-irradiation by densitometric analysis
[16] = tested on: Escherichia coli; assay: Induction of Escherichia coli supercoiled pBR322 plasmid DNA photocleavage assessed as ratio of single stranded break to double stranded break formation per molecule at pH 6 at 15 uM measured after 8 mins of UV-irradiation by densitometric analysis
[17] = tested on: Escherichia coli; assay: Induction of Escherichia coli supercoiled pBR322 plasmid DNA photocleavage assessed as single stranded break formation per molecule at pH 6 at 15 uM measured after 6 mins of UV-irradiation by densitometric analysis
[18] = tested on: Escherichia coli; assay: Induction of Escherichia coli supercoiled pBR322 plasmid DNA photocleavage assessed as double stranded break formation per molecule at pH 6 at 15 uM measured after 8 mins of UV-irradiation by densitometric analysis
[19] = species: Bos taurus; assay: Binding affinity to calf thymus DNA assessed as binding constant at 15 uM and pH 6 by UV-spectroscopic analysis
[20] = Dissociation constant, pKa of the compound in D2O for second ionization at 1 mM by H1-NMR analysis; type: physicochemical
[21] = tested on: Escherichia coli; assay: Induction of Escherichia coli supercoiled pBR322 plasmid DNA photocleavage assessed as ratio of single stranded break to double stranded break formation per molecule at pH 6 at 15 uM measured after 4 mins of UV-irradiation by densitometric analysis
[22] = Dissociation constant, pKa of the compound in D2O for first ionization at 1 mM by H1-NMR analysis; type: physicochemical
[23] = Dissociation constant, pKa of the compound for second ionization at 10 uM by fluorescence analysis; type: physicochemical
[24] = tested on: A-375; assay: Induction of DNA damage in human A375 cells assessed as abasic site formation at 3 uM preincubated for 1 hr followed by UV-irradiation for 2 hrs; type: functional
[25] = tested on: A-375; assay: Induction of DNA damage in human A375 cells assessed as abasic site formation at 3 uM preincubated for 1 hr followed by UV-irradiation for 2 hrs relative to control; type: functional
[26] = tested on: Escherichia coli; assay: Induction of Escherichia coli supercoiled pBR322 plasmid DNA photocleavage at 15 uM and pH 6 to 8 measured after 1 hr of UV-irradiation by densitometric analysis

SMILES	KSV [2]	Activity [3]	Kb [4]	Kb [5]	KSV [7]	pKa at 10 µM [8]	KSV [9]	Activity [10]	Ratio [11]	Activity [12]	Activity [13]	Activity [14]	Ratio [15]	Ratio [16]	Activity [17]	Activity [18]	Kb [19]	pKa at 1000 µM [20]	pKa at 1000 µM [22]	Activity [26]	also measured
C[C@H](N)C(=O)NCCCC[C@H](N)C(=O)Nc1ccc(C#Cc2c(F)c(F)nc(F)c2F)cc1	3.4	1.9	8890	30300	6.8	7.3	5.7		10.5	0.6	0.19	0.07	9.1	6.6	1.7	0.29	2890	7.4	7.3		Ratio [21]: 9.4
NCC(=O)NCCC[C@H](N)C(=O)Nc1ccc(C#Cc2c(F)c(F)nc(F)c2F)cc1	1.5		10500	15000	7	7	4.4	Active	> 4								2830	7.7	7.2		Activity [1]: Active; Activity [6]: Active
C[C@H](N)C(=O)NCCC[C@H](N)C(=O)Nc1ccc(C#Cc2c(F)c(F)nc(F)c2F)cc1	5.2		6750	20200	11.1	6.6	7.8		4.6								4440	7.8	7	Active	
C[C@H](N)C(=O)NC[C@H](N)C(=O)Nc1ccc(C#Cc2c(F)c(F)nc(F)c2F)cc1	3.1		15000	20500	9	5.5	4.9		3.5								5850			Active	pKa at 10 µM [23]: 8.1

Second part, led by results:

KSV [2]	Activity [3]	Kb [4]	Kb [5]	KSV [7]	pKa at 10 µM [8]	KSV [9]	Activity [10]	Ratio [11]	Activity [12]	Activity [13]	Activity [14]	Ratio [15]	Ratio [16]	Activity [17]	Activity [18]	Kb [19]	pKa at 1000 µM [20]	pKa at 1000 µM [22]	Activity [26]	SMILES	also measured
5.7	0.9	16800	18000	26	7.3	9.2	Active	1.7	0.7	0.15	0	5.3	4.3	0.8	0.2	10400				N[C@@H](Cc1c[nH]c2ccccc12)C(=O)NCCCC[C@H](N)C(=O)Nc1ccc(C#Cc2c(F)c(F)nc(F)c2F)cc1	Activity [1]: Active; Activity [6]: Active
2.6		14600	23300	9.4	6.3	5.9		1.1								22300				N[C@@H](Cc1ccccc1)C(=O)NC[C@H](N)C(=O)Nc1ccc(C#Cc2c(F)c(F)nc(F)c2F)cc1	pKa at 10 µM [23]: 7.8
6.7	1.7	13100	66700	27.8	7.3	9.2		5.7	0.7	0.13	0	8.04	8	1	0.21	11700	6.7	6.6		N[C@@H](Cc1ccccc1)C(=O)NCCCC[C@H](N)C(=O)Nc1ccc(C#Cc2c(F)c(F)nc(F)c2F)cc1	Activity [24]: 17; fold change (FC) [25]: 2
6.3		12700	32100	27.8	7.1	23.6	Active	3								10700	7.2	7.2	Active	N[C@@H](Cc1ccccc1)C(=O)NCCC[C@H](N)C(=O)Nc1ccc(C#Cc2c(F)c(F)nc(F)c2F)cc1	
